Measured values as given in US20240246950A1, “Anilino-Pyrazole Derivatives, Compositions and Methods Thereof” (Ensem Therapeutics, priority 2022, published 2024).

How the values were obtained:
[1] = target: T1, CDK2/CycA2 (Homo sapiens, UniProt P24941); assay: In vitro kinase Caliper assay CDK2/CycA2; type: biochemical; settings: enzyme 10 nM, 28° C. 30 min, read-out: CDK2 cyclinA2 activity assay: IC50
Protocol: (§1) In Vitro Kinase Caliper Assays: CDK2/CycA2, CDK2/CycE1, CDK1/cyclinB and GSK3β
(§2) 1× Kinase buffer (50 mM HEPES pH 7.5, 10 mM MgCl2, 2 mM DTT and 0.01% Brij-35) The test compounds were prepared as 10 mM stock solution in 100% DMSO. The stock solution was then serially diluted 3-fold in 100% DMSO to 10 concentrations. 200 nL of each diluted compound solution was transferred to 384-well plate in duplicate. To each well, 10 μL of enzyme solution containing either CDK2/CycA2, CDK2/CycE1, CDK1/cyclinB, or GSK3β (final concentrations 10 nM, 3 nM, 1 nM, 1 nM respectively) in 1× Kinase buffer and the mix incubated at room temperature for 10 min. To initiate each reaction, 10 μL of peptide solution containing FAM-labelled peptide with final concentration at 3000 nM (FAM-P18 (5-FAM-QSPKKG-CONH2) for CDK2/CycA2, CDK2/CycE1, CDK1/cyclinB proteins, FAM-P15 (5-FAM-KRREILSRRPpSYR—COOH) for GSK30 protein) and ATP (final concentrations 30 μM, 77 μM or 20 μM, respectively) in 1× Kinase buffer was added to each well. All reactions were incubated at 28° C. for 30 min and then terminated by the addition of 30 μL stop buffer (100 mM HEPES pH 7.5, 50 mM EDTA, 0.2% Coating Reagent #3 and 0.015% Brij-35). All samples were then subjected to analysis using Caliper EZ Reader to read conversion values. IC50 values were then calculated by plotting dose-response curves and then using the XLfit application in Excel software.

[2] = test system: TOV21G; assay: Cell proliferation (CyQUANT) TOV21G; type: cell-based; settings: Homo sapiens, 168 h, 7 days, read-out: Anti-proliferation assay: IC50 (nM) [Cell Line: TOV21G]
How it was run: (§3)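 Cells were seeded at 2500, 1000 or 3000 cells/well, cultured overnight, then exposed to 3-fold compound dilutions for 7 days (final DMSO at most 0.01%). CyQUANT fluorescence was read at Ex/Em 480/520 nm; % inhibition computed relative to same-plate DMSO wells.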

[3] = test system: OVCAR3; assay: Cell proliferation (CyQUANT) OVCAR3; type: cell-based; settings: Homo sapiens, OVCAR-3, 168 h, OVCAR3, 7 days, read-out: Anti-proliferation assay: IC50 (nM) [Cell Line: OVCAR3]
How it was run: as §3

[4] = target: T2, CDK2/CycE1 (Homo sapiens, UniProt P24941); assay: In vitro kinase Caliper assay CDK2/CycE1; type: biochemical; settings: enzyme 3 nM, 28° C. 30 min, read-out: CDK2 cyclinE1 activity assay: IC50
Protocol: as §1, §2

[5] = target: T3, CDK1/cyclinB (Homo sapiens, UniProt P06493); assay: In vitro kinase Caliper assay CDK1/cyclinB; type: biochemical; settings: enzyme 1 nM, 28° C. 30 min
Protocol: as §1, §2

[6] = target: T4, GSK3β (Homo sapiens, UniProt P49841); assay: In vitro kinase Caliper assay GSK3β; type: biochemical; settings: enzyme 1 nM, 28° C. 30 min
Protocol: as §1, §2

[7] = target: T1, CDK2/CycA2; assay: In vitro kinase TR-FRET assay CDK2/CycA2; type: biochemical; settings: enzyme 3 nM, ATP 27 μM, read-out: CDK2 cyclinA2 activity assay: IC50
How it was run: (§4)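 Enzymes at 3 nM (CDK2/CycA2), 0.6 nM (CDK2/CycE1), 0.3 nM (CDK1/cyclinB), 0.6 nM (GSK3β) with ATP at 27, 82, 56, 7.6 μM respectively, 50 nM ULight-4E-BP1 peptide, HEPES pH7.5; 10-point 3-fold dilutions. 1 h reaction at room temperature; Eu-anti-phospho-4E-BP1 TR-FRET (665/615 nm) read; IC50 from dose-response curves.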

[8] = target: T3, CDK1/cyclinB; assay: In vitro kinase TR-FRET assay CDK1/cyclinB; type: biochemical; settings: enzyme 0.3 nM, ATP 56 μM
How it was run: as §4

[9] = target: T2, CDK2/CycE1; assay: In vitro kinase TR-FRET assay CDK2/CycE1; type: biochemical; settings: enzyme 0.6 nM, ATP 82 μM, read-out: CDK2 cyclinE1 activity assay: IC50
How it was run: as §4

[10] = target: T4, GSK3β; assay: In vitro kinase TR-FRET assay GSK3β; type: biochemical; settings: enzyme 0.6 nM, ATP 7.6 μM
How it was run: as §4

T4 sequence (P49841 whole entry, species assumed): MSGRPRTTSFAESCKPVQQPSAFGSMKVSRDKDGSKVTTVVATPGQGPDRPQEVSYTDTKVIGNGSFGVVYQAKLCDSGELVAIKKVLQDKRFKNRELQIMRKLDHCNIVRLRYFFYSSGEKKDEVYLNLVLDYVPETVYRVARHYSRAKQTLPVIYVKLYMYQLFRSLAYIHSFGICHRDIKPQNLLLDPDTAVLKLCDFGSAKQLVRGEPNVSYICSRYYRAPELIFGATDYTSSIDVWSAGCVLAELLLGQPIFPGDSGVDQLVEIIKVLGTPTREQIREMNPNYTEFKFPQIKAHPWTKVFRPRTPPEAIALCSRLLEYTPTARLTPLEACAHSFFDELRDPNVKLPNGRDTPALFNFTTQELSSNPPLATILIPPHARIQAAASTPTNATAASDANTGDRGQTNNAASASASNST
T3 sequence (P06493 whole entry): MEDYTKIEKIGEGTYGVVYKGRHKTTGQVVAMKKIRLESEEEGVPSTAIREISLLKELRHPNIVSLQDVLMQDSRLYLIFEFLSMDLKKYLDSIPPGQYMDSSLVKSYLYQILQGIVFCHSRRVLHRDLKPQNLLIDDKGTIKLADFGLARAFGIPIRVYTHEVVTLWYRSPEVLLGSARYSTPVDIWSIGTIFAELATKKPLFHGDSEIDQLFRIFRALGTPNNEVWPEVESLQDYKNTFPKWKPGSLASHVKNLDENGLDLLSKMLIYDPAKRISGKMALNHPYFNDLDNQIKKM
T3 sequence (P14635 whole entry partner): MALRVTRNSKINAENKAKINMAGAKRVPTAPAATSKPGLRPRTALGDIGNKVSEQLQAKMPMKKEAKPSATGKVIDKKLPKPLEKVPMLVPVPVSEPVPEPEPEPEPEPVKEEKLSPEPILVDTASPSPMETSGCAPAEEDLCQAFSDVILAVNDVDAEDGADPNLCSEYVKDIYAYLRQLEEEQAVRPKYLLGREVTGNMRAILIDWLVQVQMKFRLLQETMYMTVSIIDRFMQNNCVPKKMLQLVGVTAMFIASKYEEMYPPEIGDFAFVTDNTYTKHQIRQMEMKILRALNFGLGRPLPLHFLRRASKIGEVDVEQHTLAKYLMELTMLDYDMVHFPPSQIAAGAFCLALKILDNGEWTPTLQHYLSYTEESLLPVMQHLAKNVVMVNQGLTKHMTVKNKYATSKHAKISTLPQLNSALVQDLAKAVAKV

IC50 [1]	IC50 [3]	IC50 [4]	IC50 [5]	IC50 [6]	IC50 [7]	IC50 [8]	IC50 [9]	IC50 [10]	Structure (SMILES)	IC50 [2]
< 50 nM	≥ 1000 nM	< 50 nM	50 to 500 nM	50 to 500 nM	–	–	–	–	CC(C)NC(=O)O[C@@H]1CC[C@H](c2cc(Nc3ccc4c(=O)[nH]n(C)c4c3)n[nH]2)C1 [Example 1, (1R,3S)-3-(3-((1-methyl-3-oxo-2,3-dihydro-1H-indazol-6-yl)amino)-1H-pyrazol-5-yl)cyclopentyl isopropylcarbamate]	≥ 1000 nM
< 50 nM	≤ 500 nM	< 50 nM	< 50 nM	500 to 1000 nM	–	–	–	–	CC(C)NC(=O)O[C@@H]1CC[C@H](c2cc(Nc3ccc4c(c3)CCNS4(=O)=O)n[nH]2)C1 [Example 2, (1R,3S)-3-(3-((1,1-dioxido-3,4-dihydro-2H-benzo[e][1,2]thiazin-6-yl)amino)-1H-pyrazol-5-yl)cyclopentyl isopropylcarbamate]	≥ 1000 nM
< 50 nM	≤ 500 nM	< 50 nM	< 50 nM	500 to 1000 nM	–	–	–	–	CC(C)NC(=O)O[C@@H]1CC[C@H](c2cc(Nc3ccc4c(c3)CNS4(=O)=O)n[nH]2)C1 [Example 3, (1R,3S)-3-(3-((1,1-dioxido-2,3-dihydrobenzo[d]isothiazol-5-yl)amino)-1H-pyrazol-5-yl)cyclopentyl isopropylcarbamate]	≥ 1000 nM
–	≤ 500 nM	–	–	–	< 50 nM	50 to 500 nM	< 50 nM	50 to 500 nM	CC(C)NC(=O)O[C@@H]1CC[C@H](c2cc(Nc3ccc4c(c3)OCCNS4(=O)=O)n[nH]2)C1 [Example 6, (1R,3S)-3-(3-((1,1-dioxido-3,4-dihydro-2H-benzo[b][1,4,5]oxathiazepin-7-yl)amino)-1H-pyrazol-5-yl)cyclopentyl isopropylcarbamate]	≥ 1000 nM
